Data taken from PubChem BioAssay AID1919000 (Molecular Pharmacology Branch, DTP, NCI, 2023).
Values joined by “and” are separate entries in the source; they are usually repeats but may differ in a detail not shown here. Equal values may be shown once.

System: 653999-131-R-J2-PDC complex spheroids, growth % test/control
Experiment: Anticancer human tumor 653999-131-R-J2-PDC patient-derived lung adenocarcinoma cell line growth inhibition [AhR]
Conditions: for viability, T/C: stronger effect = lower value
In short: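 Complex tumor spheroids co-cultured with HUVEC and human MSC stroma; AhR antagonists tested in combination with standard-of-care and investigational agents. Top concentration at or near clinical Cmax (else 10 microM), half-log dilutions; growth expressed as percent test/control.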

[1] = curve of first compound, second compound 0.1 µM
[2] = curve of first compound, second compound 0.316 µM
[3] = curve of first compound, second compound 1 µM
[4] = curve of first compound, second compound 3.16 µM
[5] = curve of first compound, second compound 10 µM
[6] = second compound 0.1 µM, first compound 0.0316 µM
[7] = second compound 0.1 µM, first compound 0.1 µM
[8] = second compound 0.1 µM, first compound 0.316 µM
[9] = second compound 0.1 µM, first compound 1 µM
[10] = second compound 0.1 µM, first compound 3.16 µM
[11] = second compound 0.1 µM, first compound 10 µM
[12] = second compound 0.316 µM, first compound 0.0316 µM
[13] = second compound 0.316 µM, first compound 0.1 µM
[14] = second compound 0.316 µM, first compound 0.316 µM
[15] = second compound 0.316 µM, first compound 1 µM
[16] = second compound 0.316 µM, first compound 3.16 µM
[17] = second compound 0.316 µM, first compound 10 µM
[18] = second compound 1 µM, first compound 0.0316 µM
[19] = second compound 1 µM, first compound 0.1 µM
[20] = second compound 1 µM, first compound 0.316 µM
[21] = second compound 1 µM, first compound 1 µM
[22] = second compound 1 µM, first compound 3.16 µM
[23] = second compound 1 µM, first compound 10 µM
[24] = second compound 3.16 µM, first compound 0.0316 µM
[25] = second compound 3.16 µM, first compound 0.1 µM
[26] = second compound 3.16 µM, first compound 0.316 µM
[27] = second compound 3.16 µM, first compound 1 µM
[28] = second compound 3.16 µM, first compound 3.16 µM
[29] = second compound 3.16 µM, first compound 10 µM
[30] = second compound 10 µM, first compound 0.0316 µM
[31] = second compound 10 µM, first compound 0.1 µM
[32] = second compound 10 µM, first compound 0.316 µM
[33] = second compound 10 µM, first compound 1 µM
[34] = second compound 10 µM, first compound 3.16 µM
[35] = second compound 10 µM, first compound 10 µM
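Further: spheroids exposed to agents for seven days.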
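Wherever viability, T/C is given: 100% = DMSO vehicle control viability.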

CC(C)c1c(-c2ccccc2)nc2c(C#N)c[nH]n2c1=O + Cc1cncc(-c2nc(NCCc3c[nH]c4ccccc34)c3ncn(C(C)C)c3n2)c1
IC50 [1]: > 10000 nM | IC50 [2]: > 10000 nM | IC50 [3]: > 10000 nM | IC50 [4]: > 10000 nM | IC50 [5]: > 10000 nM | viability, T/C [6]: 112% | viability, T/C [7]: 99.8% | viability, T/C [8]: 102% | viability, T/C [9]: 95.8% | viability, T/C [10]: 93.9% | viability, T/C [11]: 102% | viability, T/C [12]: 115% | viability, T/C [13]: 114% | viability, T/C [14]: 120% | viability, T/C [15]: 104% | viability, T/C [16]: 97.7% | viability, T/C [17]: 99.2% | viability, T/C [18]: 128% | viability, T/C [19]: 118% | viability, T/C [20]: 122% | viability, T/C [21]: 136% | viability, T/C [22]: 125% | viability, T/C [23]: 116% | viability, T/C [24]: 128% | viability, T/C [25]: 117% | viability, T/C [26]: 121% | viability, T/C [27]: 115% | viability, T/C [28]: 129% | viability, T/C [29]: 120% | viability, T/C [30]: 63.2% | viability, T/C [31]: 58.8% | viability, T/C [32]: 62.6% | viability, T/C [33]: 63.7% | viability, T/C [34]: 62.2% | viability, T/C [35]: 63.7%

COc1cccc2c1C(=O)c1c(O)c3c(c(O)c1C2=O)CC(O)(C(=O)CO)CC3OC1CC(N)C(O)C(C)O1 (stereo not drawn)
viability, T/C (compound 0.0316 µM): 62.4% and 56% and 66.2% | viability, T/C (compound 0.1 µM): 40.9% and 45.6% and 56.4% | viability, T/C (compound 0.316 µM): 28.3% and 26.5% and 28.1% | viability, T/C (compound 1 µM): 7.89% and 10.5% and 10.6% | viability, T/C (compound 3.16 µM): 3.94% and 7.29% and 3.85% | viability, T/C (compound 10 µM): 10.6% and 20.5% and 19.3% | IC50 (curve of compound): 66.2 nM and 65.3 nM and 132 nM

CCc1c2c(nc3ccc(O)cc13)-c1cc3c(c(=O)n1C2)COC(=O)[C@]3(O)CC + Cc1ccccc1N=Nc1ccc(NC(=O)c2ccnn2C)c(C)c1
IC50 [1]: 11.5 nM | IC50 [2]: 10.9 nM | IC50 [3]: 9.66 nM | IC50 [4]: 9.18 nM | IC50 [5]: 10.2 nM | viability, T/C (second compound 0.1 µM, first compound 0.000949 µM): 94.8% | viability, T/C (second compound 0.1 µM, first compound 0.003 µM): 76.6% | viability, T/C (second compound 0.1 µM, first compound 0.00949 µM): 51% | viability, T/C (second compound 0.1 µM, first compound 0.03 µM): 34.7% | viability, T/C (second compound 0.1 µM, first compound 0.0949 µM): 29.7% | viability, T/C (second compound 0.1 µM, first compound 0.3 µM): 17.4% | viability, T/C (second compound 0.316 µM, first compound 0.000949 µM): 88% | viability, T/C (second compound 0.316 µM, first compound 0.003 µM): 80.6% | viability, T/C (second compound 0.316 µM, first compound 0.00949 µM): 49.7% | viability, T/C (second compound 0.316 µM, first compound 0.03 µM): 32.9% | viability, T/C (second compound 0.316 µM, first compound 0.0949 µM): 30.1% | viability, T/C (second compound 0.316 µM, first compound 0.3 µM): 17.7% | viability, T/C (second compound 1 µM, first compound 0.000949 µM): 85.6% | viability, T/C (second compound 1 µM, first compound 0.003 µM): 72.6% | viability, T/C (second compound 1 µM, first compound 0.00949 µM): 46% | viability, T/C (second compound 1 µM, first compound 0.03 µM): 37.3% | viability, T/C (second compound 1 µM, first compound 0.0949 µM): 25.4% | viability, T/C (second compound 1 µM, first compound 0.3 µM): 19.2% | viability, T/C (second compound 3.16 µM, first compound 0.000949 µM): 81.3% | viability, T/C (second compound 3.16 µM, first compound 0.003 µM): 65% | viability, T/C (second compound 3.16 µM, first compound 0.00949 µM): 51.3% | viability, T/C (second compound 3.16 µM, first compound 0.03 µM): 32.5% | viability, T/C (second compound 3.16 µM, first compound 0.0949 µM): 25.2% | viability, T/C (second compound 3.16 µM, first compound 0.3 µM): 14.7% | viability, T/C (second compound 10 µM, first compound 0.000949 µM): 73.6% | viability, T/C (second compound 10 µM, first compound 0.003 µM): 62.2% | viability, T/C (second compound 10 µM, first compound 0.00949 µM): 49.7% | viability, T/C (second compound 10 µM, first compound 0.03 µM): 41% | viability, T/C (second compound 10 µM, first compound 0.0949 µM): 27.5% | viability, T/C (second compound 10 µM, first compound 0.3 µM): 18.4%

O=C(C=Cn1cnc(-c2cc(C(F)(F)F)cc(C(F)(F)F)c2)n1)NNc1cnccn1
viability, T/C (compound 0.00949 µM): 104% and 94.3% and 105% | viability, T/C (compound 0.03 µM): 73.3% and 78.8% and 101% | viability, T/C (compound 0.0949 µM): 61.6% and 77.7% and 76.8% | viability, T/C (compound 0.3 µM): 49.5% and 51.9% and 57.9% | viability, T/C (compound 0.949 µM): 40.9% and 40.5% and 50.6% | viability, T/C (compound 3 µM): 40.6% and 47.6% and 43% | IC50 (curve of compound): 264 nM and 423 nM and 743 nM

COc1cc(C2c3cc4c(cc3C(OC3OC5COC(C)OC5C(O)C3O)C3COC(=O)C23)OCO4)cc(OC)c1O (stereo not drawn) + Cc1cncc(-c2nc(NCCc3c[nH]c4ccccc34)c3ncn(C(C)C)c3n2)c1
IC50 [1]: 841 nM | IC50 [2]: 732 nM | IC50 [3]: 1190 nM | IC50 [4]: 1640 nM | IC50 [5]: 44 nM | viability, T/C [6]: 92.3% | viability, T/C [7]: 94.7% | viability, T/C [8]: 58.6% | viability, T/C [9]: 51.5% | viability, T/C [10]: 37.9% | viability, T/C [11]: 28.6% | viability, T/C [12]: 91% | viability, T/C [13]: 79.7% | viability, T/C [14]: 58.1% | viability, T/C [15]: 45.6% | viability, T/C [16]: 39% | viability, T/C [17]: 28.4% | viability, T/C [18]: 93.1% | viability, T/C [19]: 84.3% | viability, T/C [20]: 71% | viability, T/C [21]: 49.3% | viability, T/C [22]: 40.9% | viability, T/C [23]: 29% | viability, T/C [24]: 96.4% | viability, T/C [25]: 85.6% | viability, T/C [26]: 69% | viability, T/C [27]: 54.5% | viability, T/C [28]: 44.4% | viability, T/C [29]: 31.2% | viability, T/C [30]: 50.2% | viability, T/C [31]: 47.1% | viability, T/C [32]: 46.2% | viability, T/C [33]: 36.3% | viability, T/C [34]: 31.6% | viability, T/C [35]: 33.8%

O=C(C=Cc1cccc(S(=O)(=O)Nc2ccccc2)c1)NO + Cc1cncc(-c2nc(NCCc3c[nH]c4ccccc34)c3ncn(C(C)C)c3n2)c1
IC50 [1]: 2990 nM | IC50 [2]: 3320 nM | IC50 [3]: 3300 nM | IC50 [4]: 3480 nM | IC50 [5]: 1460 nM | viability, T/C [6]: 91.4% | viability, T/C [7]: 96.3% | viability, T/C [8]: 88% | viability, T/C [9]: 74.5% | viability, T/C [10]: 49.2% | viability, T/C [11]: 10.7% | viability, T/C [12]: 94.1% | viability, T/C [13]: 96.7% | viability, T/C [14]: 89% | viability, T/C [15]: 76.5% | viability, T/C [16]: 52.2% | viability, T/C [17]: 10.6% | viability, T/C [18]: 95.8% | viability, T/C [19]: 104% | viability, T/C [20]: 98.3% | viability, T/C [21]: 91.2% | viability, T/C [22]: 51.6% | viability, T/C [23]: 9.38% | viability, T/C [24]: 104% | viability, T/C [25]: 99.5% | viability, T/C [26]: 95.1% | viability, T/C [27]: 79.3% | viability, T/C [28]: 53.7% | viability, T/C [29]: 11.8% | viability, T/C [30]: 54.7% | viability, T/C [31]: 50.4% | viability, T/C [32]: 50.4% | viability, T/C [33]: 51.7% | viability, T/C [34]: 46.9% | viability, T/C [35]: 8.52%

Cc1cncc(-c2nc(NCCc3c[nH]c4ccccc34)c3ncn(C(C)C)c3n2)c1
viability, T/C (compound 0.1 µM): 92.6% [middle of 20 runs] | viability, T/C (compound 0.316 µM): 97% [middle of 20 runs] | viability, T/C (compound 1 µM): 101% [middle of 20 runs] | viability, T/C (compound 10 µM): 52% [middle of 20 runs]
